The structures appear in SMILES notation.

A short description of data set [1]: Particle size distribution by laser diffraction, before and after jet-mill micronization. It counts as physicochemical. As to the method: “Particle size distribution” or “PSD” or “size distribution” refers to the size of particles present in their relative proportions in a sample, as measured by laser diffraction spectroscopy. In aspects, the particle size distribution refers to the particle size distribution of all the drug particles in the composition. The particle size distribution of a sample is measured by laser diffraction spectroscopy. Laser diffraction spectrometers are commercially available as, e.g., MASTERSIZER® 3000 from Malvern Instruments Ltd, and HORIBA® LA-950 by Horiba Instruments, Inc., Irvine Calif. For laser diffraction spectroscopy, particle size distribution is generally described by D values, such as D90. In aspects, the laser diffraction spectroscopy can be analyzed by the Fraunhofer theory. In aspects, the laser diffraction spectroscopy can be analyzed by the Mie scattering theory. In aspects, the laser diffraction spectroscopy can be analyzed by a combination of the Fraunhofer theory and the Mie scattering theory.
Formulation (III) was micronized using a Sturtevant SDM jet mill with a 2 inch diameter loop. The process parameters were: inlet air pressure 120 psi; grind chamber 100 psi; nozzle air pressure 80 psi; manual fee rate.
Formulation (III) was micronized using a Sturtevant SDM jet mill with a 4 inch diameter loop. The process parameters were: inlet air pressure 120 psi; grind chamber 100 psi; nozzle air pressure 80 psi; manual fee rate.

Data set [2] is described as follows: Storage stability: Total Impurities by stability-indicating HPLC. In kind it is physicochemical. As to conditions: API (Formula (III)) itself, reference.
[3] abbreviates: 1 pass micronization, jet mill 2 inch diameter loop.
The mark [4] stands for this setting: 1 pass micronization, jet mill 4 inch diameter loop.
Where [5] appears, read: 2 pass micronization, jet mill 4 inch diameter loop.
Where [6] appears, read: Before micronization, Table 1A, jet mill 2 inch diameter loop.
Where [7] appears, read: Before micronization, Table 1B, jet mill 4 inch diameter loop.

`Cc1ccc(-c2nc(N)nc3c2nnn3Cc2cccc(COC3CCOC3)n2)o1` (centres unmarked) [Formula (III)]: the D10 is 0.9 microns in data set [1] (setting [3]); 1.1 microns in data set [1] (setting [4]); 0.9 microns in data set [1] (setting [5]); 2.3 microns in data set [1] (setting [6]); 2.3 microns in data set [1] (setting [7]). For the same compound, the D50 in data set [1] (setting [3]) is 3.3 microns; in data set [1] (setting [4]), 4.3 microns; in data set [1] (setting [5]), 3.1 microns; in data set [1] (setting [6]) it was 8.6 microns; in data set [1] (setting [7]), 8.6 microns. Further, the D90 in data set [1] (setting [3]) is reported as 8.2 microns; in data set [1] (setting [4]), 20.2 microns; in data set [1] (setting [5]) it was 8.3 microns; in data set [1] (setting [6]), 31.1 microns; in data set [1] (setting [7]), 31.1 microns. Moreover, the “Total Impurities” value in data set [2] and in data set [2] (listed as API) was 0.80% throughout.

The values are drawn from patent US11266649B2, “Pharmaceutical formulations” (Corvus Pharmaceuticals, Inc., priority 2018, dated 2022).
